This is an account of results in US20080070866A1, “Chemical compounds” (Praecis Pharmaceuticals Incorporated, priority 2006, published 2008).

In this experiment the target is T1, S1P-1 receptor (Homo sapiens, UniProt P21453).
T1 construct: expressed in transfected cells; host or cells: HEK 293 T cells (membrane preparation)
The experiment in a line: [33P]sphingosine 1-phosphate binding assay on membranes of transfected HEK 293 T cells. The note with it: [33P]S1P binding, receptor taken from context of b294. The protocol: In certain embodiments, the compounds of the invention selective for the S1P-1 receptor as compared to one or more of the other S1P receptors. For example, one set of compounds includes compounds which are selective for the S1P-1 receptor relative to the S1P-3 receptor. […] The EC50 of a compound is determined using the ^35S-GTPγS binding assay, as described in WO 03/061567, the entire contents of which are incorporated herein by reference. […] The IC50 of a compound is determined using the [^33P]sphingosine 1-phosphate binding assay, as described in Davis, M. D. et al., Sphingosine 1-Phosphate Analogs as Receptor Antagonists. J. Biol. Chem. (2005) 280:9833-9841, the entire contents of which are incorporated herein by this reference.
The terms “agonist” or “S1P-1 receptor agonist” as used herein include the compounds described herein which bind to and/or agonize the S1P-1 receptor. […] The compounds' IC50 for the S1P1 receptor can be measured using the binding assays described in Example 13 or those described in WO 03/061567.
The ability of several of the compounds described herein to bind to the S1P-1 or S1P-3 receptor was also tested as follows.
For the membrane preparation, plasmid DNA was transfected into HEK 293 T cells using the FuGENE 6 transfection protocol (publicly available from Roche). […] Protein concentration was determined spectroscopically by Bradford protein assay. […]

T1 sequence (P21453 whole entry): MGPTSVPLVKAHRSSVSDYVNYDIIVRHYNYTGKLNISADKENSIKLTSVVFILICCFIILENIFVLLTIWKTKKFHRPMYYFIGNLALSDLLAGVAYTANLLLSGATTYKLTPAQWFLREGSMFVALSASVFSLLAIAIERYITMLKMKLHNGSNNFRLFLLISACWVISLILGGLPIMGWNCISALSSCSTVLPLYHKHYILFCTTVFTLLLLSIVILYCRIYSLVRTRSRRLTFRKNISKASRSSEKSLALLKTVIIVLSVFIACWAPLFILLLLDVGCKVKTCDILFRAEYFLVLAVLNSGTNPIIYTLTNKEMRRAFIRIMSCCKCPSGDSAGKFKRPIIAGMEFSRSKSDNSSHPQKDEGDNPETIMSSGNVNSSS

Regarding `CCCCCOCCOc1ccc(-c2nnc([C@@](C)(N)CO)s2)cc1C(F)(F)F`, the IC50 was determined as 2.17 nM. This lies in the single-digit nanomolar range.

A word on the IC50: it is the concentration needed to halve the response being measured. A high value points to lower potency.
